Results: patent US10111902B2, “Polymers for reversing heparin-based anticoagulation” (University of British Columbia, priority 2011, dated 2018)
Entries after “also recorded” stand apart in the source; their conditions may differ.

Assays:
UFH [1] = test: Anti Xa neutralization of UFH in platelet poor plasma; type: biochemical, human; conditions: One IU UFH per ml in platelet poor plasma
Method: (§1) Both JNK-1 and JNK-2 result in greater neutralization of unfractionated heparin at two doses (50 and 100 μg/ml), Tinzaparin (LMWH) and Enoxaparin (LMWH).

Tinzaparin [2] = test: Anti Xa neutralization of Tinzaparin in platelet poor plasma; type: biochemical, human; conditions: One IU LMWH per ml in platelet poor plasma
Method: as §1

Enoxaparin [3] = test: Anti Xa neutralization of Enoxaparin in platelet poor plasma; type: biochemical, human; conditions: One IU LMWH per ml in platelet poor plasma
Method: as §1

[4] = system: unfractionated heparin (UFH); test: APTT assay, neutralization of UFH in citrate plasma; type: biochemical, human
Method: In one example, a heparin binding synthetic polyvalent cationic macromolecule JNK-1 can neutralize UFH in human blood under in vitro conditions (FIGS. 4A and 4B). Citrate plasma was anti-coagulated with 1.0 U/ml UFH (UFH control) and was titrated with different concentrations of JNK-1 polymers (0.009 to 8.69 nanomoles/ml) and protamine (0.2 to 222.2 nanomoles/ml).
(§2) Citrate plasma was anticoagulated with 2.0 U/ml UFH, Enoxaparin and Tinzaparin and was treated with different concentrations of the HBSPCM polymers and protamine (0.001 to 0.25 mg/ml). The APTT was measured for each sample.
(§3) Citrate plasma was anticoagulated with UFH (2.0 IU/mL), Enoxaparin (2.0 IU/mL) and Tinzaparin (1.14 IU/mL) and was titrated with different concentrations of the HBSPCM polymers and protamine (0.001 to 0.25 mg/ml). The APTT was measured for each sample.
(§4) Ability of HBSPCM polymers JNK-9, JNK-10 and JNK-11 was studied for the range of concentration from 0.01 to 0.25 mg/mL prepared in 0.15 M saline. Citrated blood was spun at 3000 RPM for 10 min to obtain platelet poor plasma (PPP). The PPP was then heparinized by adding 45 μL of heparin (UFH, LMWH etc.) to 2200 μL of PPP final concentration of 2.0 IU/mL for UFH and Tinzaparin and 1.14 IU/mL for Enoxaparin. Normal control was prepared by adding 25 μL of 0.15 M saline to 250 μL of PPP. 25 μL of each antidote solution (polymer or protamine) was added to 225 μL of heparinized PPP. 250 μL of APTT reagent (actin FSL) was then added and samples were incubated for 3 min at 37° C. 250 μL of normal control was combined with 250 μL of APTT reagent and also incubated for 3 min. 50 μL of 0.025M CaCl2 was added to 100 μL aliquots of normal control and sample (in triplicate). A heparinized control containing 225 μL of PPP and 25 μL of saline was also prepared and run similar to normal control.

LMWH Tinzaparin [5] = test: APTT assay, neutralization of LMWH Tinzaparin in citrate plasma; type: biochemical, human
Method: Citrate plasma was anti-coagulated with 2.0 U/ml LMWH (LMWH control) and was titrated with different concentrations of JNK-1 polymers (0.009 to 8.69 nanomoles/ml) (FIG. 4A) and protamine (0.2 to 222.2 nanomoles/ml) (FIG. 4B).
as §2, §3
as §4, with “250 μL of normal control was combined with 250 μL of APTT reagent and also incubated for 3 min. 50 μL of 0.025M CaCl2 was added to 100 μL aliquots of normal control and sample (in triplicate). A heparinized control containing 225 μL of PPP and 25 μL of saline was also prepared and run similar to normal control.” left out

LMWH Enoxaparin = test: APTT assay, neutralization of LMWH Enoxaparin in citrate plasma; type: biochemical, human; conditions: Enoxaparin 2.0 U/ml or 1.14 IU/mL, 0.001 to 0.25 mg/ml
Method: as §2, §3
as §4, with “A heparinized control containing 225 μL of PPP and 25 μL of saline was also prepared and run similar to normal control.” left out

UFH [6] = test: Thromboelastography (TEG), neutralization of UFH in whole blood; type: cell-based; conditions: human whole blood, UFH 0.5 U/ml, re-calcified at 37° C
Method: This example examines thromboelastography in the presence of various heparin binders. Thromboelastography (TEG) provides an in vitro method for monitoring of the evolution of the viscoelastic properties and coagulation kinetics of blood as clotting proceeds. The principle components of the TEG are a cylindrical cup and a bob suspended in the cup from a weak torsion wire. The warmed cup oscillates over a 10 second period through an angle of 4° 45′. Blood is added and a torque is transmitted to the bob as the gel forms. The rate of clot formation, the strength of the clot, and the rate of clot lysis are reflected in the shape traced out by the maxima in the bob oscillation as a function of time (the trace of the TEG). […]
(§5) To carry out TEG experiments, citrate anti-coagulated whole blood with heparin or heparin derivatives added are incubated with buffered HBSPCM polymers (sodium citrate or saline) for 1 minute before recalcification at 37° C. Clot formation kinetics are monitored in a TEG machine (350 μl whole blood+35 μl polymer or control solution) at 37° C.
The coagulation time (FIG. 7A) and maximum clot strength, or maximum amplitude (MA) (FIG. 7B) are shown. Citrated whole blood was added to UFH or Tinzaparin (0.5 U/ml) and re-calcified at 37° C. in a TEG cup and monitored using a TEG machine. […]

LMWH Tinzaparin [7] = test: Thromboelastography (TEG), neutralization of LMWH Tinzaparin in whole blood; type: cell-based; conditions: human whole blood; for clot strength (maximum amplitude, MA) with Tinzaparin: antidote at higher concentration (0.25 mg/ml)
Method: (§6) This example examines thromboelastography in the presence of various heparin binders. Thromboelastography (TEG) provides an in vitro method for monitoring of the evolution of the viscoelastic properties and coagulation kinetics of blood as clotting proceeds. The principle components of the TEG are a cylindrical cup and a bob suspended in the cup from a weak torsion wire. The warmed cup oscillates over a 10 second period through an angle of 4° 45′. Blood is added and a torque is transmitted to the bob as the gel forms. The rate of clot formation, the strength of the clot, and the rate of clot lysis are reflected in the shape traced out by the maxima in the bob oscillation as a function of time (the trace of the TEG). The clot's physical properties, i.e. rate of clot formation, clot strength, and stability are dependent on the interaction of fibrinogen, platelets, and plasma proteins. TEG studies yield the cumulative effect of several components of coagulation (global homeostasis) as a function of time.
as §5
The coagulation time (FIG. 7A) and maximum clot strength, or maximum amplitude (MA) (FIG. 7B) are shown. Citrated whole blood was added to UFH or Tinzaparin (0.5 U/ml) and re-calcified at 37° C. in a TEG cup and monitored using a TEG machine. JNK-1 polymers or protamine at different concentrations were used as neutralizing agents.

Enoxaparin [8] = test: Thromboelastography (TEG), neutralization of Enoxaparin in whole blood; type: cell-based; conditions: human whole blood; JNK-5 and JNK-6 at 0.1 mg/ml
Method: as §6
(§7) To carry out TEG experiments, citrate anti-coagulated whole blood with heparin or heparin derivatives added are incubated with buffered HBSPCM polymers (sodium citrate or saline) for 1 minute before recalcification at 37° C. Clot formation kinetics are monitored in a TEG machine (350 μl whole blood+35 μl polymer or control solution) at 37° C. […]

complement system = test: Complement activation, CH50 sheep erythrocyte lysis assay; type: biochemical; conditions: serum, 0.05 and 0.5 mg/mL, 1 h, 37° C
Method: The level of complement activation was measured by a CH50 sheep erythrocyte lysis assay. Ten microliter of each of the 0.5 and 5 mg/mL polymers or protamine was mixed with 90 μL of serum for 1 h at 37° C. The final concentration of polymer/protamine to serum was 0.05 and 0.5 mg/mL. One mg/mL heat-activated human IgG and 5 mM EDTA, after mixing with serum, were the positive and negative controls, respectively, for the study. 60 μL of post-incubation serum/polymer or protamine mixture was diluted by 120 μL of GVB^2+ (CompTech). Seventy-five microliter of GVB^2+ diluted serum/polymer or protamine mixture was incubated for 1 h at 37° C. with 75 μL of Ab-sensitized sheep erythrocyte (CompTech). The reaction was stopped by addition of 300 μL cold GVB-EDTA to each sample. The samples were centrifuged and the optical density of supernatant was measured at 540 nm. One hundred percent lysis of the sheep erythrocyte was done by dH2O. The percentage of complement activation was calculated by 100-% lysis of sheep erythrocytes.

platelets = test: Platelet activation of 23 kDa HBSPCM polymers (CD62-PE, flow cytometry); type: cell-based; conditions: PRP, 0.5 mg/mL, 1 h, 37° C
Method: The level of platelet activation was quantified by flow cytometry. Ninety microliter of PRP was incubated at 37° C. with 10 μL of 5 mg/mL of polymer or protamine (final concentration 0.5 mg/mL). After 1 h, aliquots of the incubation mixtures were removed for assessment of the platelet activation state. Five microliter of post-incubation platelet/polymer or protamine mixture, diluted in HEPES buffer, was incubated for 20 minutes in the dark with 5 μL of monoclonal anti-CD62-PE (Immunotech). The samples were then stopped with 0.5 mL of phosphate-buffered saline solution. The level of platelet activation was analyzed in a BD FACSCanto II flow cytometer (Becton Dickinson) by gating platelets specific events based on their FITC-CD42 fluorescence and light scattering profile. Activation of platelets was expressed as the percentage of platelet activation marker CD62-PE fluorescence detected in the 10,000 total events counted. Duplicate measurements were done, the mean of which was reported. Controls were done for the flow cytometric analysis. One U/ml of bovine thrombin (Sigma) was used as a positive control, and PE conjugated goat anti-mouse IgG polyclonal antibodies (Immunotech) was used as the non-specific binding control.

blood coagulation [9] = test: Blood coagulation: PT and APTT in platelet poor plasma; type: biochemical, human; conditions: FIG. 15, compared to saline
Method: The present example examines blood coagulation in the presence of a heparin binding polymer. JNK-1 polymers were tested for blood compatibility using the activated partial thromboplastin time (APTT) and the prothrombin time (PT) in fresh human plasma. PT can be used to evaluate the extrinsic and common coagulation pathway and the results are expressed in seconds required for a fibrin clot to form after tissue thromboplastin (innovin) has been added to the blood sample. APTT is used to evaluate the intrinsic and common coagulation pathway. The results are expressed in seconds required for a fibrin clot to form in the plasma sample after a partial thromboplastin reagent (actin) and calcium chloride have been added to the sample. Blood was mixed with a measured amount of citrate and the plasma was obtained by centrifugation, using methods known in the art.
A final JNK-1 concentration of 10 mg/ml is used at in a 9:1 dilution of plasma at 37° C. Control experiments were done adding identical volumes of saline solution. JNK-1 polymer solutions were incubated with platelet poor plasma for 5 minutes at 37° C. before adding PT and APTT reagents.
Blood coagulation is measured using APTT.

Tinzaparin [10] = test: LMWH Tinzaparin neutralization in living rats (anti-Xa assay); type: in vivo, rat; conditions: 25 U Tinzaparin, then about 1 mg polymer or protamine (3 mg/kg)
Method: The present example examines heparin binding polymer effectiveness in vivo. HBSPCM polymers were tested for their ability to neutralize UFH and LMWH in living rats. Rats were first injected with heparin or heparin derivative, and then injected with the JNK-1 polymers, protamine or saline control to neutralize the previously administered heparin or heparin derivative. Neutralization was measured by detecting the percentage of factor Xa using an anti-Xa assay as a measure of anticoagulant activity.
In addition, Enoxaparin alone and JNK-1 polymers+Enoxaparin were compared (FIG. 8C). An anti-Xa assay was used to measure heparin activity in rat blood. In this pilot study, rats were injected with 25 U of UFH, Tinzaparin or Enoxaparin (0 minutes). Blood was collected after UFH, Tinzaparin, or Enoxaparin infusion (5 minutes). Approximately 1 mg of JNK-1 polymers or protamine (dose was 3 mg/kg) was injected at 7 minutes and the blood was collected at 12 minutes after UFH/Tinzaparin/Enoxaparin infusion (5 minutes after JNK-1 infusion), and 17 minutes (10 minutes after JNK-1 polymer infusion). For subjects receiving Enoxaparin, blood was collected at additional time points (25 minutes and 30 minutes). Blood samples collected before the UFH, Enoxaparin or Tinzaparin infusion were used as a base control. […] Each data point shown reflects an average and standard deviation from five rats. […]

blood coagulation [11] = test: Blood compatibility by thromboelastograph (TEG); type: cell-based; conditions: polymer concentration 0.5 mg/ml
Method: as §6, §7

protamine
Anti Xa Neutralization (%) of UFH at 50 μg/ml (UFH [1]; 50 μg/ml): 84% | Anti Xa Neutralization (%) of UFH at 100 μg/ml (UFH [1]; 100 μg/ml): 85 ± 0% | Anti Xa Neutralization (%) of Tinzaparin at 100 μg/ml (Tinzaparin [2]): 77 ± 1% | Anti Xa Neutralization (%) of Enoxaparin at 100 μg/ml (Enoxaparin [3]): 73 ± 4% | UFH neutralization (APTT) ([4]; citrate plasma, UFH 2.0 U/ml, polymers and protamine 0.001 to 0.25 mg/ml): neutralizes UFH and LMWH only in the narrow concentration range | anticoagulant effect at higher concentration (APTT) ([4]; heparinized citrate plasma, 0.001 to 0.25 mg/ml): possesses anticoagulant activity | anticoagulant effect at high concentration (APTT) ([4]; heparinized human citrate plasma, high doses of antidote): had an anticoagulant effect | UFH neutralization (APTT) ([4]; human citrate plasma anti-coagulated with UFH (1.0 U/ml), titrated with JNK-1 0.009 to 8.69 or protamine 0.2 to 222.2 nanomoles/ml): complete neutralization occurred at a higher dosage of protamine; also recorded: acted with less efficiency for UFH within a smaller dose window | LMWH Tinzaparin neutralization (APTT) (LMWH Tinzaparin [5]; citrate plasma, Tinzaparin 2.0 U/ml or 1.14 IU/mL, 0.001 to 0.25 mg/ml): neutralizes UFH and LMWH only in the narrow concentration range | LMWH Tinzaparin neutralization (APTT) (LMWH Tinzaparin [5]; human citrate plasma anti-coagulated with LMWH Tinzaparin (2.0 U/ml), titrated with JNK-1 0.009 to 8.69 or protamine 0.2 to 222.2 nanomoles/ml): not at all; also recorded: incapable of neutralizing LMWH | LMWH Enoxaparin neutralization (APTT) (LMWH Enoxaparin): neutralizes UFH and LMWH only in the narrow concentration range | UFH neutralization (TEG: coagulation time, clot strength) (UFH [6]): not effective at neutralizing UFH or LMWH Tinzaparin and Enoxaparin in terms of the time to clot formation | LMWH Tinzaparin neutralization (TEG: coagulation time, clot strength) (LMWH Tinzaparin [7]; Tinzaparin 0.5 U/ml, re-calcified at 37° C): not effective at neutralizing UFH or LMWH Tinzaparin and Enoxaparin in terms of the time to clot formation | clot strength (maximum amplitude, MA) with Tinzaparin (LMWH Tinzaparin [7]): did not form a stable clot | clot strength (maximum amplitude, MA) with Tinzaparin (LMWH Tinzaparin [7]; listed as protamine): not at all at a high dose | Enoxaparin neutralization (TEG) (Enoxaparin [8]): not effective at neutralizing UFH or LMWH Tinzaparin and Enoxaparin in terms of the time to clot formation | complement activation (CH50) (complement system): significant complement activation | platelet activation (CD62-PE) (platelets): significant levels of platelet activation | blood coagulation (APTT biocompatibility) (blood coagulation [9]): different blood coagulation profile | neutralization of anticoagulant activity of Tinzaparin in rats (anti-Xa) (Tinzaparin [10]): could not completely neutralize the LMWH | coagulation time (R) and kinetics parameter (K), TEG (blood coagulation [11]): different blood coagulation profile | Blood compatibility at 1 mg/ml (blood): poor [3]
